In patent US20220265614A1, “TREATMENT COMPRISING FXR AGONISTS” (Novartis AG, priority 2019, published 2022):

Key:
[1] = system: patients with biopsy-proven NASH and fibrosis stages 2-3; assay: FLIGHT-FXR (NCT02855164) Part C interim analysis at week 12; format: in vivo, human
Description: Prespecified endpoints assessed at week 12 included overall safety and changes in alanine aminotransferase (ALT), hepatic fat fraction (HFF), gamma glutamyl transferase (GGT), and body weight.

NASH patients [2] = assay: Parts A and B of study CLJN452A2202 in NASH patients, 12 weeks
human hepatocytes = assay: In vitro human hepatocytes treated with FXR agonists: LDL uptake; format: cell-based; conditions: FIG. 5
Description: In addition, FXR agonist treatments have been associated with lipid abnormalities, including increases in peripheral LDL (Neuschwander-Tetri et al, The Lancet 2015; 385: 956-965). The reduction of the bile acid pathway by FXR agonists could lead to intracytoplasmic increase in cholesterol in the hepatocytes. Increase cholesterol in hepatocytes is associated with a counter mechanism of decrease LDL receptor on the surface of the cells (Goldstein et al Circulation. 1987 September;76(3):504-7). Such a decrease in the LDL receptor on the surface of the hepatocytes will ultimately result in an increase in circulating LDL; the phenotype observed in the clinics. […] To mitigate the increase in circulating LDL, it is proposed to administer a FXR agonist to the subjects in need thereof in the evening (e.g. from about 6 pm to about 12 pm, preferably from about 8 pm to about 11 pm, preferably around 9 pm) to reduce the impact of the FXR agonist on circulating LDL.
To mitigate the increase in peripheric LDL, we hypothesize that treating the subjects in the evening (from about 6 pm to about 12 pm, e.g. from about 8 pm to about 11 pm, preferably around 9 pm) would be reduce the impact of the drug on LDL. […]

NASH patients [3] = conditions: cited from earlier work
[4] = higher doses (140 μg, 200 μg), after 12 weeks of treatment
[5] = all doses (10, 30, 60 and 90 μg), 12 weeks

## O=C(O)c1cc(F)c2nc(N3C4CCC3CC(OCc3c(-c5ccccc5OC(F)(F)F)noc3C3CC3)C4)sc2c1 [Tropifexor, 2-[(1R,3r,5S)-3-({5-cyclopropyl-3-[2-(trifluoromethoxy)phenyl]-1,2-oxazol-4-yl}methoxy)-8-azabicyclo[3.2.1]octan-8-yl]-4-fluoro-1,3-benzothiazole-6-carboxylic acid]
[1]; 140 μg and 200 μg, 12 weeks
  lipid changes that led to treatment discontinuation or dose reduction: None
  low density lipoprotein-cholesterol (LDL-C): dose-related increase
[1]; 140 μg once daily, N = 50
  LS mean absolute change (SE) in ALT from baseline to Week 12: −20.1 (4.57) U/L
  LS mean absolute change (SE) in GGT from baseline to Week 12: −39.2 (3.70) U/L
  LS mean absolute change (SE) in body weight from baseline to Week 12: −2.46 (0.38) kg
[1]; 140 μg, 200 μg and placebo groups
  frequency of serious adverse events: low and comparable across groups
[1]; 140 μg, n=1
  treatment discontinuation rate due to pruritus: 2%
[1]; 200 μg
  prespecified endpoints at week 12: met
[1]; 200 μg once daily, N = 51
  LS mean absolute change (SE) in ALT from baseline to Week 12: −23.6 (4.48) U/L
  LS mean absolute change (SE) in GGT from baseline to Week 12: −40.9 (3.62) U/L
  LS mean absolute change (SE) in body weight from baseline to Week 12: −3.20 (0.37) kg
[1]; 200 μg, n=3
  treatment discontinuation rate due to pruritus: 6%
[1]; both Tropifexor groups (140 μg, 200 μg)
  patients with pruritus whose events were of mild (Grade 1) severity: > 60%
[1]; [4]
  ALT, HFF, and body weight: robust and dose-dependent decreases
  safety and tolerability: good safety and tolerability
NASH patients [2]; 10 to 90 μg daily for 12 weeks
  biologic activity (GGT): clear dose response
  target engagement (FGF19): clear dose response
NASH patients [2]; 60 and 90 μg, Week 12
  efficacy based on biomarkers: anti-inflammatory and anti-steatotic efficacy
NASH patients [2]; [5]
  ALT compared to placebo: reduced
  hepatic fat fraction compared to placebo: reduced
NASH patients [2]; up to 90 μg daily
  tolerability: generally well tolerated

## O=C(O)c1ccnc(N2CC(O)(c3ccc(OCc4c(-c5c(Cl)cccc5Cl)noc4C4CC4)cc3Cl)C2)c1 [cilofexor]
Human hepatocytes
  LDL uptake by hepatocytes: reduce the LDL uptake by hepatocytes in a dose dependent manner

## CC[C@H]1[C@@H](O)[C@@H]2[C@H](CC[C@]3(C)[C@@H]([C@H](C)CCC(=O)O)CC[C@@H]23)[C@@]2(C)CC[C@@H](O)C[C@@H]12 [obeticholic acid, 6α-ethyl-chenodeoxycholic acid]
Human hepatocytes
  LDL uptake by hepatocytes: reduce the LDL uptake by hepatocytes in a dose dependent manner
NASH patients [3]
  adverse effects of long term administration: pruritus: most common adverse effect
NASH patients [3]; long term administration
  lipid abnormalities: low density lipoprotein (LDL) cholesterol: increased
